Laboratory results from patent publication US10159252B2, “Fungicidal compounds and compositions” (AgroFresh Inc., priority 2015, dated 2018).
Counter-ions that a name gives are not always drawn.

Legend:
Penicillium expansum [1] = assay: In vivo volatile bioassay on inoculated fruit (apple, pear); conditions: P. expansum, 10 mg/L headspace, sublimed, 3 day treatment plus additional 3 days at 21° C.
Procedure: (§1) To assess the in vivo activity of volatile antimicrobial compound of Sample 1 (see Example 1) in fruit, a volatile bioassay is developed using apple, pear, orange, strawberry, grape and blueberry. Two apples, two oranges, two pears, eight strawberries, sixteen grapes or thirty blueberries (per rep, in duplicate) are placed in a clamshell with the stem end facing up for all fruits except for strawberry (stem end facing downwards). A fresh wound is inoculated with 20 μL 1×10^6 per mL Penicillium expansum (P. expansum) spore suspension (apple and pear), 20 μL×1×10^6 per mL Penicillium digitatum (P. digitatum) spore suspension (orange), and 20 μL×1×10^6 (strawberry and grape) or 10 μL (blueberry) of 1×10^5 per mL Botrytis cinerea (B. cinerea) spore suspension. The clamshells are placed inside a 117 L Rubbermaid storage box (Cat #2244), and the lids closed.
(§2) Sample 1, prepared according to Example 1 and dissolved in acetone, is pipetted onto a cotton strip, where the acetone is allowed to evaporate for 5 min, and then introduced into the container by a sublimation device (copper tube heated to 200° C. with fan flow at 0.5 liters per minute (L/min)) to achieve a final headspace concentration of 10 mg/L). The containers are then held for 3 d at 21° C. After treatment, the fruits are held for an additional 3 d at 21° C., then evaluated for disease incidence (millimeter (mm) diameter of browning or water-soaked lesions) and pathogen sporulation (mm diameter) for apple, pear and orange, as well as Botrytis cinerea disease incidence (%) and severity (0 to 4) for strawberry, grape and blueberry. Results are summarized in Table 2 showing good in vivo antimicrobial control of three fungal pathogens on six different hosts when applied as a volatile fungicide. Results are also depicted in FIG. 1.

Penicillium digitatum = assay: In vivo volatile bioassay on inoculated fruit (orange); conditions: P. digitatum, 10 mg/L headspace, sublimed, 3 day treatment plus additional 3 days at 21° C.
Text: To assess the in vivo activity of volatile antimicrobial compound of Sample 1 (see Example 1) in fruit, a volatile bioassay is developed using apple, pear, orange, strawberry, grape and blueberry. Two apples, two oranges, two pears, eight strawberries, sixteen grapes or thirty blueberries (per rep, in duplicate) are placed in a clamshell with the stem end facing up for all fruits except for strawberry (stem end facing downwards). […]
as §2, with “The containers are then held for 3 d at 21° C.” left out, “Results are summarized in Table 2 showing good in vivo antimicrobial control of three fungal pathogens on six different hosts when applied as a volatile fungicide. Results are also depicted in FIG. 1.” left out

Botrytis cinerea [2] = assay: In vivo volatile bioassay on inoculated fruit (strawberry, grape, blueberry); conditions: B. cinerea, 10 mg/L headspace, sublimed, 3 day treatment plus additional 3 days at 21° C.
Procedure: as §1, §2

Penicillium expansum [3] = assay: In vitro volatile inhibition assay, 12-well plate, half-strength PDA; format: cell-based; conditions: P. expansum, 3 d at 23° C.; for percent growth relative to control: volatile
Procedure: (§3) A 12-well microtiter plate (6.5 milliliter (mL) volume per well) is used for the in vitro inhibition assay for volatile antimicrobial compound of Sample 1 (see Example 1) against two plant fungal pathogens. A 3-mL volume of half-strength Potato Dextrose Agar (PDA) is added to each well. After cooling, 1 microliter (μL) of 1×10^5 spores per mL of Botrytis cinerea (B. cinerea) or Penicillium expansum (P. expansum) suspension is spotted to the center of the agar. A Whatman #1 filter disk (Cat. No. 1001-0155) is placed, in duplicate, on the underside of a polyethylene polymerase chain reaction (PCR) plate sealing film.
(§4) For determination of the minimum inhibitory concentration (MIC), the test compound is diluted in acetone, and the appropriate amount of compound added to disks in a dose dependent manner to achieve a final headspace concentration of 35.7 to 0.03 milligrams per liter (mg/L). The acetone is permitted to evaporate for 5 min. The headspace around the inoculum is then sealed inside the well by the film with the adhering disk containing the fungicide. The plates are inverted, placed over the treated disks and sealed to prevent any of the chemical from flaking from the disk and falling onto the inoculated agar. After 3 days (d) of storage at 23° C., cultures are evaluated for percent growth relative to control. Results are summarized in Table 1 showing the ability of benzoxaborole compound of Sample 1 to control the growth of two fungal plant pathogens through volatile activity.

Botrytis cinerea [4] = assay: as above; format: cell-based; conditions: B. cinerea, 3 d at 23° C.; for percent growth relative to control: volatile
Procedure: as §3, §4

[5] = headspace concentration 0.03 mg/L
[6] = headspace concentration 0.07 mg/L
[7] = headspace concentration 0.1 mg/L
[8] = headspace concentration 0.3 mg/L
[9] = headspace concentration 0.6 mg/L
[10] = headspace concentration 1.1 mg/L
[11] = headspace concentration 2.2 mg/L
[12] = headspace concentration 4.5 mg/L
[13] = headspace concentration 8.9 mg/L
[14] = headspace concentration 17.9 mg/L
[15] = headspace concentration 35.7 mg/L
[16] = Penicillium expansum, 72 h, applied as a volatile fungicide, headspace concentration
[17] = Botrytis cinerea, 72 h, applied as a volatile fungicide, headspace concentration

SMILES: Fc1ccc2c(c1)CO[B-]2(F)F [Sample 1, potassium 1,1,5-trifluoro-1,3-dihydro-2,1-benzoxaborolate salt]
- Browning (mm) (Penicillium expansum [1]; Apple): 4.8 mm
- Sporulation (mm) (Penicillium expansum [1]; Apple): 7.3 mm
- Browning (mm) (Penicillium expansum [1]; Pear): 5.3 mm
- Sporulation (mm) (Penicillium expansum [1]; Pear): 4.3 mm
- Sporulation (mm) (Penicillium digitatum): 0.0 mm
- Water soaked lesion (mm) (Penicillium digitatum): 12.7 mm
- Incidence (%) (Botrytis cinerea [2]; Blueberry): 5.0%
- Severity (0-4) (Botrytis cinerea [2]; Blueberry): 0.06
- Incidence (%) (Botrytis cinerea [2]; Grape): 23.3%
- Severity (0-4) (Botrytis cinerea [2]; Grape): 0.12
- Incidence (%) (Botrytis cinerea [2]; Strawberry): 6.3%
- Severity (0-4) (Botrytis cinerea [2]; Strawberry): 0.03
- percent growth relative to control (Penicillium expansum [3]; [5]): −2.7%
- percent growth relative to control (Penicillium expansum [3]; [6]): −1.9%
- percent growth relative to control (Penicillium expansum [3]; [7]): −3.3%
- percent growth relative to control (Penicillium expansum [3]; [8]): −8.2%
- percent growth relative to control (Penicillium expansum [3]; [9]): 12.9%
- percent growth relative to control (Penicillium expansum [3]; [10]): 56.2%
- percent growth relative to control (Penicillium expansum [3]; [11]): 73%
- percent growth relative to control (Penicillium expansum [3]; [12]): 100%
- percent growth relative to control (Penicillium expansum [3]; [13]): 100%
- percent growth relative to control (Penicillium expansum [3]; [14]): 100%
- percent growth relative to control (Penicillium expansum [3]; [15]): 100%
- EC50 (Penicillium expansum [3]; [16]): 1.2 µg/mL
- MIC (Penicillium expansum [3]; [16]): 4.5 µg/mL
- percent growth relative to control (Botrytis cinerea [4]; [5]): 0%
- percent growth relative to control (Botrytis cinerea [4]; [6]): 0%
- percent growth relative to control (Botrytis cinerea [4]; [7]): 0%
- percent growth relative to control (Botrytis cinerea [4]; [8]): 0%
- percent growth relative to control (Botrytis cinerea [4]; [9]): 64.8%
- percent growth relative to control (Botrytis cinerea [4]; [10]): 100%
- percent growth relative to control (Botrytis cinerea [4]; [11]): 100%
- percent growth relative to control (Botrytis cinerea [4]; [12]): 100%
- percent growth relative to control (Botrytis cinerea [4]; [13]): 100%
- percent growth relative to control (Botrytis cinerea [4]; [14]): 100%
- percent growth relative to control (Botrytis cinerea [4]; [15]): 100%
- EC50 (Botrytis cinerea [4]; [17]): 0.5 µg/mL
- MIC (Botrytis cinerea [4]; [17]): 1.1 µg/mL
